Reference: patent US10323022B2, “Pyrrolidinyl urea, pyrrolidinyl thiourea and pyrrolidinyl guanidine compounds as TrkA kinase inhibitors” (Array BioPharma Inc., priority 2011, dated 2019)

Molecular target: TrkA (Homo sapiens (Human), UniProt P04629)
Assay: TrkA Omnia Assay
Assay type: biochemical
Details: averaged IC50; 20 nM enzyme, 500 μM ATP, 10 μM peptide substrate
Procedure, shortened: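 Continuous fluorescent kinase read-out (ex 360 nm, em 485 nm) over 70 min, with initial rates fitted to 4- or 5-parameter logistic curves for IC50. Final conditions: 500 μM ATP, 10 μM Omnia Tyr Peptide #4, 20 nM TrkA, MOPS pH 7.5 buffer with MgCl2 and Triton X-100; enzyme and compound preincubated 10 min at ambient temperature.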

Chain of TrkA (P04629 33-796): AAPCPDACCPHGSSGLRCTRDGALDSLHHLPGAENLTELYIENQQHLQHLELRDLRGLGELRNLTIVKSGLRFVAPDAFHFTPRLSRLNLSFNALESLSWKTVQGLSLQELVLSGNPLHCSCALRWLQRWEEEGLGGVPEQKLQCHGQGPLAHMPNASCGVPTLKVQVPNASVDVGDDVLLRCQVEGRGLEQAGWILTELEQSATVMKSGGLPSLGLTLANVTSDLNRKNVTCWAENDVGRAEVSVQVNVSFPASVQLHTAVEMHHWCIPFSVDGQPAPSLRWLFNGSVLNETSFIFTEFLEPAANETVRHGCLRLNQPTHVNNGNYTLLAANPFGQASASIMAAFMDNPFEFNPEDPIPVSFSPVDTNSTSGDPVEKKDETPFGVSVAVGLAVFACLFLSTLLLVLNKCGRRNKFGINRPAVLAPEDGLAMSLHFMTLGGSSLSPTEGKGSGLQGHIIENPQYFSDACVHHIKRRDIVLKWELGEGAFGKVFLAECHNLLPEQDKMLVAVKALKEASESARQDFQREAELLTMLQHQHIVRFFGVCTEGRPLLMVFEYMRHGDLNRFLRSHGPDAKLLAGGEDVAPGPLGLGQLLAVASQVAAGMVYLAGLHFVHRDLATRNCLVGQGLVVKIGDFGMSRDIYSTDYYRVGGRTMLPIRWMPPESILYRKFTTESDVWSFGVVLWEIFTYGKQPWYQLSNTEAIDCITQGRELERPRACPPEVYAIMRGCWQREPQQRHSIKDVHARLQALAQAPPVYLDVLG

COCCN1C[C@@H](NC(=O)Nc2c(C)c(-c3cnc(C)s3)nn2-c2ccccc2)[C@H](c2ccc(F)c(F)c2)C1 [Example 510, 1-((3S,4R)-4-(3,4-difluorophenyl)-1-(2-methoxyethyl)pyrrolidin-3-yl)-3-(4-methyl-3-(2-methylthiazol-5-yl)-1-phenyl-1H-pyrazol-5-yl)urea]
IC50: < 100 nM

COCCN1C[C@@H](NC(=O)Nc2c(C)c(-c3cnc(C)nc3)nn2-c2ccccc2)[C@H](c2ccc(F)c(F)c2)C1 [Example 511, 1-((3S,4R)-4-(3,4-difluorophenyl)-1-(2-methoxyethyl)pyrrolidin-3-yl)-3-(4-methyl-3-(2-methylpyrimidin-5-yl)-1-phenyl-1H-pyrazol-5-yl)urea]
IC50: < 100 nM

COCCN1C[C@@H](NC(=O)Nc2c(C)c(-c3cnc(N)nc3)nn2-c2ccccc2)[C@H](c2ccc(F)c(F)c2)C1 [Example 512, 1-(3-(2-aminopyrimidin-5-yl)-4-methyl-1-phenyl-1H-pyrazol-5-yl)-3-((3S,4R)-4-(3,4-difluorophenyl)-1-(2-methoxyethyl)pyrrolidin-3-yl)urea]
IC50: < 100 nM

COCCN1C[C@@H](NC(=O)Nc2c(C)c(-c3sc(C)nc3C)nn2-c2ccccc2)[C@H](c2ccc(F)c(F)c2)C1 [Example 513, 1-((3S,4R)-4-(3,4-difluorophenyl)-1-(2-methoxyethyl)pyrrolidin-3-yl)-3-(3-(2,4-dimethylthiazol-5-yl)-4-methyl-1-phenyl-1H-pyrazol-5-yl)urea]
IC50: < 100 nM

COCCN1C[C@@H](NC(=O)Nc2c(C)c(-c3cc(C)nc(C)c3)nn2-c2ccccc2)[C@H](c2ccc(F)c(F)c2)C1 [Example 514, 1-((3S,4R)-4-(3,4-difluorophenyl)-1-(2-methoxyethyl)pyrrolidin-3-yl)-3-(3-(2,6-dimethylpyridin-4-yl)-4-methyl-1-phenyl-1H-pyrazol-5-yl)urea]
IC50: < 100 nM

COCCN1C[C@@H](NC(=O)Nc2c(C)c(-c3ccc(N)nc3)nn2-c2ccccc2)[C@H](c2ccc(F)c(F)c2)C1 [Example 515, 1-(3-(6-aminopyridin-3-yl)-4-methyl-1-phenyl-1H-pyrazol-5-yl)-3-((3S,4R)-4-(3,4-difluorophenyl)-1-(2-methoxyethyl)pyrrolidin-3-yl)urea]
IC50: < 100 nM

COCCN1C[C@@H](NC(=O)Nc2c(C)c(Br)nn2-c2ccccc2)[C@H](c2ccc(F)cc2)C1 [Example 516, 1-(3-bromo-4-methyl-1-phenyl-1H-pyrazol-5-yl)-3-((3S,4R)-4-(4-fluorophenyl)-1-(2-methoxyethyl)pyrrolidin-3-yl)urea]
IC50: < 100 nM

COCCN1C[C@@H](NC(=O)Nc2c(C)c(-c3ccc(=O)n(CC(F)(F)F)c3)nn2-c2ccccc2)[C@H](c2ccc(F)c(F)c2)C1 [Example 517, 1-((3S,4R)-4-(3,4-difluorophenyl)-1-(2-methoxyethyl)pyrrolidin-3-yl)-3-(4-methyl-3-(6-oxo-1-(2,2,2-trifluoroethyl)-1,6-dihydropyridin-3-yl)-1-phenyl-1H-pyrazol-5-yl)urea]
IC50: < 100 nM

COCCN1C[C@@H](NC(=O)Nc2c(C)c(-c3cnn(C(C)C)c3)nn2-c2ccccc2)[C@H](c2ccc(F)cc2)C1 [Example 518, 1-((3S,4R)-4-(4-fluorophenyl)-1-(2-methoxyethyl)pyrrolidin-3-yl)-3-(1′-isopropyl-4-methyl-1-phenyl-1H, 1′H-[3,4′-bipyrazol]-5-yl)urea]
IC50: < 100 nM

COCCN1C[C@@H](NC(=O)Nc2c(C)c(-c3ccc(=O)n(C)c3)nn2-c2ccccc2)[C@H](c2ccc(F)cc2)C1 [Example 519, 1-((3S,4R)-4-(4-fluorophenyl)-1-(2-methoxyethyl)pyrrolidin-3-yl)-3-(4-methyl-3-(1-methyl-6-oxo-1,6-dihydropyridin-3-yl)-1-phenyl-1H-pyrazol-5-yl)urea]
IC50: < 100 nM

Cc1c(Br)nn(-c2ccccc2)c1NC(=O)N[C@H]1CN(CC(F)(F)F)C[C@@H]1c1ccccc1 [Example 520, 1-(3-bromo-4-methyl-1-phenyl-1H-pyrazol-5-yl)-3-((3R,4S)-4-phenyl-1-(2,2,2-trifluoroethyl)pyrrolidin-3-yl)urea]
IC50: < 100 nM

Cc1c(-c2cnc(N)nc2)nn(-c2ccccc2)c1NC(=O)N[C@H]1CN(CC(F)(F)F)C[C@@H]1c1ccccc1 [Example 522, 1-(3-(2-aminopyrimidin-5-yl)-4-methyl-1-phenyl-1H-pyrazol-5-yl)-3-((3R,4S)-4-phenyl-1-(2,2,2-trifluoroethyl)pyrrolidin-3-yl)urea bis(2,2,2-trifluoroacetate)]
IC50: < 100 nM

CCn1cc(-c2nn(-c3ccccc3)c(NC(=O)N[C@@H]3CN(CCOC)C[C@H]3c3ccc(F)c(F)c3)c2C)cn1 [Example 523, 1-((3S,4R)-4-(3,4-difluorophenyl)-1-(2-methoxyethyl)pyrrolidin-3-yl)-3-(1′-ethyl-4-methyl-1-phenyl-1H, 1′H-[3,4′-bipyrazol]-5-yl)urea]
IC50: < 100 nM

CCn1cc(-c2nn(-c3ccccc3)c(NC(=O)N[C@@H]3CN(CCOC)C[C@H]3c3ccc(F)cc3)c2C)cn1 [Example 524, 1-(1′-ethyl-4-methyl-1-phenyl-1H, 1′H-[3,4′-bipyrazol]-5-yl)-3-((3S,4R)-4-(4-fluorophenyl)-1-(2-methoxyethyl)pyrrolidin-3-yl)urea]
IC50: < 100 nM

COCCN1C[C@@H](NC(=O)Nc2c(C)c(OS(=O)(=O)C(F)(F)F)nn2-c2ccccc2)[C@H](c2ccc(F)c(F)c2)C1 [Example 525, 5-(3-((3S,4R)-4-(3,4-difluorophenyl)-1-(2-methoxyethyl)pyrrolidin-3-yl)ureido)-4-methyl-1-phenyl-1H-pyrazol-3-yl trifluoromethanesulfonate]
IC50: < 100 nM

COCCN1C[C@@H](NC(=O)Nc2c(C)c(-c3cnc(OC)nc3)nn2-c2ccccc2)[C@H](c2ccc(F)c(F)c2)C1 [Example 526, 1-((3S,4R)-4-(3,4-difluorophenyvl)-1-(2-methoxyethyl)pyrrolidin-3-yl)-3-(3-(2-methoxypyrimidin-5-yl)-4-methyl-1-phenyl-1H-pyrazol-5-yl)urea]
IC50: < 100 nM

COCCN1C[C@@H](NC(=O)Nc2c(C)c(-c3cnc(N(C)C)nc3)nn2-c2ccccc2)[C@H](c2ccc(F)c(F)c2)C1 [Example 527, 1-((3S,4R)-4-(3,4-difluorophenyl)-1-(2-methoxyethyl)pyrrolidin-3-yl)-3-(3-(2-(dimethylamino)pyrimidin-5-yl)-4-methyl-l-phenyl-1H-pyrazol-5-yl)urea]
IC50: < 100 nM

COCCN1C[C@@H](NC(=O)Nc2c(C)c(-c3cnc(OC)nc3)nn2-c2ccccc2)[C@H](c2ccc(F)cc2)C1 [Example 528, 1-((3S,4R)-4-(4-fluorophenyl)-1-(2-methoxyethyl)pyrrolidin-3-yl)-3-(3-(2-methoxypyrimidin-5-yl)-4-methyl-1-phenyl-1H-pyrazol-5-yl)urea]
IC50: < 100 nM

COCCN1C[C@@H](NC(=O)Nc2c(C)c(-c3cnc(N(C)C)nc3)nn2-c2ccccc2)[C@H](c2ccc(F)cc2)C1 [Example 529, 1-(3-(2-(dimethylamino)pyrimidin-5-yl)-4-methyl-1-phenyl-1H-pyrazol-5-yl)-3-((3S,4R)-4-(4-fluorophenyl)-1-(2-methoxyethyl)pyrrolidin-3-yl)urea]
IC50: < 100 nM

CCn1cc(-c2nn(-c3ccccc3)c(NC(=O)N[C@@H]3CN(CCOC)C[C@H]3c3cccc(F)c3)c2C)cn1 [Example 530, 1-(1′-ethyl-4-methyl-1-phenyl-1H,1′H-[3,4′-bipyrazol]-5-yl)-3-((3S,4R)-4-(3-fluorophenyl)-1-(2-methoxyethyl)pyrrolidin-3-yl)urea]
IC50: < 100 nM

COCCN1C[C@@H](NC(=O)Nc2c(C)c(-c3ccn(C)c(=O)c3)nn2-c2ccccc2)[C@H](c2cccc(F)c2)C1 [Example 531, 1-((3S,4R)-4-(3-fluorophenyl)-1-(2-methoxyethyl)pyrrolidin-3-yl)-3-(4-methyl-3-(1-methyl-2-oxo-1,2-dihydropyridin-4-yl)-1-phenyl-1H-pyrazol-5-yl)urea]
IC50: < 100 nM

COCCN1C[C@@H](NC(=O)Nc2c(C)c(-c3ccn(C)c(=O)c3)nn2-c2ccccc2)[C@H](c2ccc(F)cc2)C1 [Example 532, 1-((3S,4R)-4-(4-fluorophenyl)-1-(2-methoxyethyl)pyrrolidin-3-yl)-3-(4-methyl-3-(1-methyl-2-oxo-1,2-dihydropyridin-4-yl)-1-phenyl-1H-pyrazol-5-yl)urea]
IC50: < 100 nM

COCCN1C[C@@H](NC(=O)Nc2c(C)c(C3CC3)nn2-c2ccccc2)[C@H](c2ccc(F)c(F)c2)C1 [Example 533, 1-(3-cyclopropyl-4-methyl-1-phenyl-1H-pyrazol-5-yl)-3-((3S,4R)-4-(3,4-difluorophenyl)-1-(2-methoxyethyl)pyrrolidin-3-yl)urea]
IC50: < 100 nM

COCCN1C[C@@H](NC(=O)Nc2c(C)c(C3CC3)nn2-c2ccccc2)[C@H](c2ccc(F)cc2)C1 [Example 534, 1-(3-cyclopropyl-4-methyl-1-phenyl-1H-pyrazol-5-yl)-3-((3S,4R)-4-(4-fluorophenyl)-1-(2-methoxyethyl)pyrrolidin-3-yl)urea]
IC50: < 100 nM

COCCN1C[C@@H](NC(=O)Nc2c(C)c(-c3ccc(=O)n(C(C)C)c3)nn2-c2ccccc2)[C@H](c2ccc(F)c(F)c2)C1 [Example 535, 1-((3S,4R)-4-(3,4-difluorophenyl)-1-(2-methoxyethyl)pyrrolidin-3-yl)-3-(3-(1-isopropyl-6-oxo-1,6-dihydropyridin-3-yl)-4-methyl-1-phenyl-1H-pyrazol-5-yl)urea]
IC50: < 100 nM

COCCN1C[C@@H](NC(=O)Nc2c(C)c(-c3ccc(=O)n(C(C)C)c3)nn2-c2ccccc2)[C@H](c2ccc(F)cc2)C1 [Example 536, 1-((3S,4R)-4-(4-fluorophenyl)-1-(2-methoxyethyl)pyrrolidin-3-yl)-3-(3-(1-isopropyl-6-oxo-1,6-dihydropyridin-3-yl)-4-methyl-1-phenyl-1H-pyrazol-5-yl)urea]
IC50: < 100 nM
